{"source": "patent EP4617278A1", "about": "“NUCLEOTIDE ANALOG, AND COMPOSITION AND USE THEREOF” (priority 2022, dated 2024)"}
{"test_system": "SARS-CoV-2 replicon", "type": "cell-based", "details": "read-out: SARS-CoV-2 Replicon (Huh-7cell) EC50", "units": {"EC50": "nM"}}
{"smiles": "CCC(CC)COC(=O)[C@H](C)N[P@@](=O)(OCOC(=O)C(C)(C)C)OC[C@H]1O[C@@](C#N)(c2ccc3c(N)ncnn23)[C@H](OC(=O)C(C)C)[C@@H]1OC(=O)C(C)C", "note": "[Compound 11b, (2R,3R,4R,5R)-2-(4-aminopyrrolo[2,1-f][1,2,4]triazin-7-yl)-2-cyano-5-((((S)-(((S)-1-(2-ethylbutoxy)-1-oxopropan-2-yl)amino)((pivaloyloxy)methoxy)phosphoryl)oxy)methyl)tetrahydrofuran-3,4-diyl bis(2-methylpropionate)]", "EC50": "< 5"}
{"smiles": "CCC(CC)COC(=O)[C@H](C)N[P@](=O)(OCOC(=O)C(C)(C)C)OC[C@H]1O[C@@](C#N)(c2ccc3c(N)ncnn23)[C@H](OC(=O)C(C)(C)C)[C@@H]1OC(=O)C(C)(C)C", "note": "[Compound 12a, (2R,3R,4R,5R)-2-(4-aminopyrrolo[2,1-f][1,2,4]triazin-7-yl)-2-cyano-5-((((R)-(((S)-1-(2-ethylbutoxy)-1-oxopropan-2-yl)amino)((pivaloyloxy)methoxy)phosphoryl)oxy)methyl)tetrahydrofuran-3,4-diyl bis(2,2-dimethylpropionate)]", "EC50": "50 to 500"}
{"smiles": "CCC(CC)COC(=O)[C@H](C)N[P@@](=O)(OCOC(=O)C(C)(C)C)OC[C@H]1O[C@@](C#N)(c2ccc3c(N)ncnn23)[C@H](OC(=O)C(C)(C)C)[C@@H]1OC(=O)C(C)(C)C", "note": "[Compound 12b, (2R,3R,4R,5R)-2-(4-aminopyrrolo[2,1-f][1,2,4]triazin-7-yl)-2-cyano-5-((((S)-(((S)-1-(2-ethylbutoxy)-1-oxopropan-2-yl)amino)((pivaloyloxy)methoxy)phosphoryl)oxy)methyl)tetrahydrofuran-3,4-diyl bis(2,2-dimethylpropionate)]", "EC50": "50 to 500"}
{"smiles": "CC(C)OC(=O)OCO[P@@](=O)(N[C@@H](C)C(=O)OC1CCC1)OC[C@H]1O[C@@](C#N)(c2ccc3c(N)ncnn23)[C@H](OC(=O)C(C)C)[C@@H]1OC(=O)C(C)C", "note": "[Compound 13a, (2R,3R,4R,5R)-2-(4-aminopyrrolo[2,1-f][1,2,4]triazin-7-yl)-2-cyano-5-((((R)-(((S)-1-cyclobutoxy-1-oxopropan-2-yl)amino)(((isopropoxycarbonyl)oxy)methoxy)phosphoryl)oxy)methyl)tetrahydrofuran-3,4-diyl bis(2-methylpropionate)]", "EC50": "< 5"}
{"smiles": "CC(C)OC(=O)OCO[P@](=O)(N[C@@H](C)C(=O)OC1CCC1)OC[C@H]1O[C@@](C#N)(c2ccc3c(N)ncnn23)[C@H](OC(=O)C(C)C)[C@@H]1OC(=O)C(C)C", "note": "[Compound 13b, (2R,3R,4R,5R)-2-(4-aminopyrrolo[2,1-f][1,2,4]triazin-7-yl)-2-cyano-5-((((S)-(((S)-1-cyclobutoxy-1-oxopropan-2-yl)amino)(((isopropoxycarbonyl)oxy)methoxy)phosphoryl)oxy)methyl)tetrahydrofuran-3,4-diyl bis(2-methylpropionate)]", "EC50": "< 5"}
{"smiles": "CCC(CC)COC(=O)[C@H](C)N[P@](=O)(OCc1ccccc1C)OC[C@H]1O[C@@](C#N)(c2ccc3c(N)ncnn23)[C@H](OC(=O)C(C)C)[C@@H]1OC(=O)C(C)C", "note": "[Compound 16a, (2R,3R,4R,5R)-2-(4-aminopyrrolo[2,1-f][1,2,4]triazin-7-yl)-2-cyano-5-((((S)-(((S)-1-(2-ethylbutoxy)-1-oxopropan-2-yl)amino)((2-methylbenzyl)oxy)phosphoryl)oxy)methyl)tetrahydrofuran-3,4-diyl bis(2-methylpropionate)]", "EC50": "50 to 500"}
{"smiles": "CCC(CC)COC(=O)[C@H](C)N[P@@](=O)(OCc1ccccc1C)OC[C@H]1O[C@@](C#N)(c2ccc3c(N)ncnn23)[C@H](OC(=O)C(C)C)[C@@H]1OC(=O)C(C)C", "note": "[Compound 16b, (2R,3R,4R,5R)-2-(4-aminopyrrolo[2,1-f][1,2,4]triazin-7-yl)-2-cyano-5-((((R)-(((S)-1-(2-ethylbutoxy)-1-oxopropan-2-yl)amino)((2-methylbenzyl)oxy)phosphoryl)oxy)methyl)tetrahydrofuran-3,4-diyl bis(2-methylpropionate)]", "EC50": "50 to 500"}
{"smiles": "CC(=O)O[C@H]1[C@@H](OC(C)=O)[C@](C#N)(c2ccc3c(N)ncnn23)O[C@@H]1COP(=O)(OCOC(=O)OC(C)C)OCOC(=O)OC(C)C", "note": "[Compound 17, (2R,3R,4R,5R)-2-(4-aminopyrrolo[2,1-f][1,2,4]triazin-7-yl)-5-((((bis(((isopropoxycarbonyl)oxy)methoxy)phosphoryl))oxy)methyl)-2-cyanotetrahydrofuran-3,4-diyl diacetate]", "EC50": "< 5"}
{"smiles": "CCC(=O)O[C@H]1[C@@H](OC(=O)CC)[C@](C#N)(c2ccc3c(N)ncnn23)O[C@@H]1COP(=O)(OCOC(=O)OC(C)C)OCOC(=O)OC(C)C", "note": "[Compound 18, (2R,3R,4R,5R)-2-(4-aminopyrrolo[2,1-f][1,2,4]triazin-7-yl)-5-((((bis(((isopropoxycarbonyl)oxy)methoxy))phosphoryl)oxy)methyl)-2-cyanotetrahydrofuran-3,4-diyl dipropionate]", "EC50": "< 5"}
{"smiles": "CC(C)OC(=O)OCOP(=O)(OCOC(=O)OC(C)C)OC[C@H]1O[C@@](C#N)(c2ccc3c(N)ncnn23)[C@H](OC(=O)C(C)C)[C@@H]1OC(=O)C(C)C", "note": "[Compound 19, (2R,3R,4R,5R)-2-(4-aminopyrrolo[2,1-f][1,2,4]triazin-7-yl)-5-((((bis(((isopropoxycarbonyl)oxy)methoxy))phosphoryl)oxy)methyl)-2-cyanotetrahydrofuran-3,4-diyl bis(2-methylpropionate)]", "EC50": "< 5"}
{"smiles": "CC(C)OC(=O)OCOP(=O)(OCOC(=O)OC(C)C)OC[C@H]1O[C@@](C#N)(c2ccc3c(N)ncnn23)[C@H](OC(=O)C(C)(C)C)[C@@H]1OC(=O)C(C)(C)C", "note": "[Compound 20, (2R,3R,4R,5R)-2-(4-aminopyrrolo[2,1-f][1,2,4]triazin-7-yl)-5-((((bis(((isopropoxycarbonyl)oxy)methoxy))phosphoryl)oxy)methyl)-2-cyanotetrahydrofuran-3,4-diyl bis(2,2-dimethylpropionate)]", "EC50": "10 to 50"}
{"smiles": "[2H]c1cc([C@]2(C#N)O[C@H](COP(=O)(OCOC(=O)OC(C)C)OCOC(=O)OC(C)C)[C@@H](OC(=O)C(C)C)[C@H]2OC(=O)C(C)C)n2ncnc(N)c12", "note": "[Compound 21, (2R,3R,4R,5R)-2-(4-amino-5-deuteriopyrrolo[2,1-f][1,2,4]triazin-7-yl)-5-((((bis(((isopropoxycarbonyl)oxy)methoxy))phosphoryl)oxy)methyl)-2-cyanotetrahydrofuran-3,4-diyl bis(2-methylpropionate)]", "EC50": "< 5"}
{"smiles": "CC(=O)O[C@H]1[C@@H](OC(C)=O)[C@](C#N)(c2ccc3c(N)ncnn23)O[C@@H]1CO[P@](=O)(OCOC(=O)OC(C)C)Oc1ccc(C(C)(C)C)cc1", "note": "[Compound 22a, (2R,3R,4R,5R)-2-(4-aminopyrrolo[2,1-f][1,2,4]triazin-7-yl)-5-((((S)-(4-tert-butylphenoxy)(((isopropoxycarbonyl)oxy)methoxy)phosphoryl)oxy)methyl)-2-cyanotetrahydrofuran-3,4-diyl diacetate]", "EC50": "< 5"}
{"smiles": "CC(=O)O[C@H]1[C@@H](OC(C)=O)[C@](C#N)(c2ccc3c(N)ncnn23)O[C@@H]1CO[P@@](=O)(OCOC(=O)OC(C)C)Oc1ccc(C(C)(C)C)cc1", "note": "[Compound 22b, ((2R,3R,4R,5R)-2-(4-aminopyrrolo[2,1-f][1,2,4]triazin-7-yl)-5-((((R)-(4-tert-butylphenoxy)(((isopropoxycarbonyl)oxy)methoxy)phosphoryl)oxy)methyl)-2-cyanotetrahydrofuran-3,4-diyl diacetate]", "EC50": "5 to 10"}
{"smiles": "CCC(=O)O[C@H]1[C@@H](OC(=O)CC)[C@](C#N)(c2ccc3c(N)ncnn23)O[C@@H]1CO[P@](=O)(OCOC(=O)OC(C)C)Oc1ccc(C(C)(C)C)cc1", "note": "[Compound 23a, (2R,3R,4R,5R)-2-(4-aminopyrrolo[2,1-f][1,2,4]triazin-7-yl)-5-((((S)-(4-tert-butylphenoxy)(((isopropoxycarbonyl)oxy)methoxy)phosphoryl)oxy)methyl)-2-cyanotetrahydrofuran-3,4-diyl dipropionate]", "EC50": "< 5"}
{"smiles": "CCC(=O)O[C@H]1[C@@H](OC(=O)CC)[C@](C#N)(c2ccc3c(N)ncnn23)O[C@@H]1CO[P@@](=O)(OCOC(=O)OC(C)C)Oc1ccc(C(C)(C)C)cc1", "note": "[Compound 23b, ((2R,3R,4R,5R)-2-(4-aminopyrrolo[2,1-f][1,2,4]triazin-7-yl)-5-((((R)-(4-tert-butylphenoxy)(((isopropoxycarbonyl)oxy)methoxy)phosphoryl)oxy)methyl)-2-cyanotetrahydrofuran-3,4-diyl dipropionate]", "EC50": "5 to 10"}
{"smiles": "CC(C)OC(=O)OCO[P@@](=O)(OC[C@H]1O[C@@](C#N)(c2ccc3c(N)ncnn23)[C@H](OC(=O)C(C)C)[C@@H]1OC(=O)C(C)C)Oc1ccc(C(C)(C)C)cc1", "note": "[Compound 24a, (2R,3R,4R,5R)-2-(4-aminopyrrolo[2,1-f][1,2,4]triazin-7-yl)-5-((((S)-(4-tert-butylphenoxy)(((isopropoxycarbonyl)oxy)methoxy)phosphoryl)oxy)methyl)-2-cyanotetrahydrofuran-3,4-diyl bis(2-methylpropionate)]", "EC50": "< 5"}
{"smiles": "CC(C)OC(=O)OCO[P@](=O)(OC[C@H]1O[C@@](C#N)(c2ccc3c(N)ncnn23)[C@H](OC(=O)C(C)C)[C@@H]1OC(=O)C(C)C)Oc1ccc(C(C)(C)C)cc1", "note": "[Compound 24b]", "EC50": "10 to 50"}
{"smiles": "CC(C)C(=O)OCO[P@@](=O)(OC[C@H]1O[C@@](C#N)(c2ccc3c(N)ncnn23)[C@H](OC(=O)C(C)C)[C@@H]1OC(=O)C(C)C)Oc1ccc(C(C)(C)C)cc1", "note": "[Compound 26a, (2R,3R,4R,5R)-2-(4-aminopyrrolo[2,1-f][1,2,4]triazin-7-yl)-5-((((S)-(4-tert-butylphenoxy)((isobutyryloxy)methoxy)phosphoryl)oxy)methyl)-2-cyanotetrahydrofuran-3,4-diyl bis(2-methylpropionate)]", "EC50": "5 to 10"}
{"smiles": "CC(C)C(=O)O[C@H]1[C@@H](OC(=O)C(C)C)[C@](C#N)(c2ccc3c(N)ncnn23)O[C@@H]1COP(=O)(OCOC(=O)C(C)(C)C)OCOC(=O)C(C)(C)C", "note": "[Compound 29, (2R,3R,4R,5R)-2-(4-aminopyrrolo[2,1-f][1,2,4]triazin-7-yl)-5-((((bis(((tert-butylcarbonyl)oxy)methoxy))phosphoryl)oxy)methyl)-2-cyanotetrahydrofuran-3,4-diyl bis(2-methylpropionate)]", "EC50": "10 to 50"}
